Consider 9 compounds from PubChem BioAssay (NCI).

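Five compound concentrations were applied to cells in 96-well plates for 48 hours; endpoints were derived by simple linear interpolation of the resulting dose-response curve. GI50 = concentration required for 50% inhibition of growth. At the TGI there is no net growth.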

Test systems include 786-0 renal; COLO 205 colon; HCT-116 colon; HL-60(TB) leukemia; HOP-62 NSCLC; IGROV1 ovarian; M14 melanoma; OVCAR-5 ovarian; SNB-75 CNS; SR leukemia.
What all share (assay): NCI tumour cell line growth inhibition, 48 h

For the compound `CCOc1ccc2c(-c3ccnc(Nc4cccc(C(F)(F)F)c4)n3)cnn2n1`, the GI50 was 7.3 µM with 786-0 renal; greater than 25 µM in the assay on COLO 205 colon; 6.04 µM in the assay on HCT-116 colon; greater than 25 µM with HL-60(TB) leukemia; greater than 21 µM with HOP-62 NSCLC; 10.9 µM with IGROV1 ovarian. Besides, the GI50 with M14 melanoma was greater than 25 µM; with OVCAR-5 ovarian, greater than 15.9 µM; in the assay on SNB-75 CNS it was 9.81 µM. The TGI in the assay on 786-0 renal was greater than 19.6 µM; in the assay on COLO 205 colon, greater than 25 µM; in the assay on HCT-116 colon it was 15.2 µM; with HL-60(TB) leukemia, greater than 25 µM; in the assay with HOP-62 NSCLC, greater than 25 µM; in the assay on IGROV1 ovarian it was greater than 25 µM. The TGI in the assay on M14 melanoma, in the assay with OVCAR-5 ovarian and in the assay with SNB-75 CNS was greater than 25 µM throughout.
Turning to `C=C(C)[C@@H]1CC[C@]2(C)[C@H](CC=C3[C@@H]4CC(C)(C)CC[C@]4(C(=O)OC)CC[C@]32C)[C@@]1(C)CC/C(N)=N/O`, the GI50 with 786-0 renal is 1.76 µM; in the assay with COLO 205 colon it was 2.46 µM; in the assay on HCT-116 colon, 1.61 µM; with HL-60(TB) leukemia, 2.47 µM; in the assay on HOP-62 NSCLC, 4.44 µM; in the assay with IGROV1 ovarian, 2.05 µM. The GI50 in the assay on M14 melanoma was 1.78 µM; in the assay with OVCAR-5 ovarian, 1.72 µM; in the assay with SR leukemia it was 1810 nM. In addition, the TGI in the assay with 786-0 renal was 3.19 µM; with COLO 205 colon, 6.54 µM; with HCT-116 colon, 3.05 µM; with HL-60(TB) leukemia it was 7.62 µM; with HOP-62 NSCLC, 20.6 µM; in the assay with IGROV1 ovarian, 6.09 µM. Moreover, the TGI with M14 melanoma is 3.86 µM; with OVCAR-5 ovarian, 3.73 µM; in the assay with SR leukemia, 5.2 µM.
With `c1ccc(CN2CCC3(CC2)ONC2=NCCN23)cc1`, the GI50 in the assay with 786-0 renal was 42.6 µM; in the assay with COLO 205 colon, 50.4 µM; in the assay on HCT-116 colon, 49.1 µM; in the assay on HL-60(TB) leukemia it was 35.4 µM; in the assay on HOP-62 NSCLC it was greater than 100 µM; in the assay with IGROV1 ovarian, 35.8 µM. Also, the GI50 in the assay on M14 melanoma is greater than 100 µM; in the assay on OVCAR-5 ovarian, 40.8 µM; with SNB-75 CNS, greater than 100 µM. In addition, the TGI in the assay on 786-0 renal, with COLO 205 colon, with HCT-116 colon, in the assay with HL-60(TB) leukemia, with HOP-62 NSCLC and in the assay on IGROV1 ovarian was greater than 100 µM in each case. Also, the TGI in the assay with M14 melanoma, in the assay with OVCAR-5 ovarian and in the assay on SNB-75 CNS was greater than 100 µM in each case.
For `CC(C)(C)OC(=O)N(CCCn1c2c(c3ccccc3c1=O)C(=O)c1ccccc1-2)CCN(CCCn1c2c(c3ccccc3c1=O)C(=O)c1ccccc1-2)C(=O)OC(C)(C)C`, the GI50 in the assay on 786-0 renal is 13.6 µM; in the assay on COLO 205 colon, greater than 50 µM; in the assay with HCT-116 colon it was 14.1 µM; with HL-60(TB) leukemia, greater than 50 µM; in the assay on HOP-62 NSCLC it was 19.8 µM; with IGROV1 ovarian, 21.8 µM. Further, the GI50 is greater than 50 µM in the assay on M14 melanoma, greater than 50 µM with OVCAR-5 ovarian and 2260 nM with SR leukemia. In addition, the TGI in the assay with 786-0 renal, with COLO 205 colon, with HCT-116 colon, in the assay with HL-60(TB) leukemia, in the assay on HOP-62 NSCLC and with IGROV1 ovarian was greater than 50 µM each time. Moreover, the TGI was greater than 50 µM with M14 melanoma, greater than 50 µM in the assay with OVCAR-5 ovarian and 13.7 µM in the assay with SR leukemia.
Turning to `CN(C)CC1CCC(CN(C)C)C1=NO` (stereo not given), the TGI with 786-0 renal, in the assay on COLO 205 colon, in the assay with HCT-116 colon, with HOP-62 NSCLC, in the assay on IGROV1 ovarian and in the assay with M14 melanoma was greater than 100 µM in each case. Moreover, the TGI in the assay with OVCAR-5 ovarian is greater than 100 µM; in the assay on SNB-75 CNS, greater than 10 µM; in the assay with SR leukemia it was greater than 100 µM.
Regarding `C[C@]1(O)CC(=O)[C@]2(O)C3=C(C=C[C@]2(O)C1)C(=O)c1c(O)cccc1C3=O`, the GI50 with 786-0 renal is 2.88 µM; with COLO 205 colon it was 0.229 µM; in the assay with HCT-116 colon it was 0.649 µM; in the assay with HL-60(TB) leukemia, 2.05 µM; in the assay on HOP-62 NSCLC, 15.6 µM; with M14 melanoma, 1.7 µM. For the same compound, the figures for the GI50 with OVCAR-5 ovarian, in the assay with SNB-75 CNS and in the assay with SR leukemia were 6.51 µM, 11.4 µM and 635 nM, respectively. The TGI turned out to be 8.5 µM in the assay with 786-0 renal; 0.584 µM in the assay with COLO 205 colon; 2.56 µM in the assay with HCT-116 colon; 4.5 µM with HL-60(TB) leukemia; 42.6 µM in the assay with HOP-62 NSCLC; 3.45 µM with M14 melanoma. Further, the TGI in the assay with OVCAR-5 ovarian is 19.8 µM; with SNB-75 CNS it was 26.4 µM; in the assay on SR leukemia, 4.95 µM.
In the case of `O=c1cc(-c2ccccc2)oc2cc(OCc3cn(Cc4ccc(F)cc4)nn3)cc(O)c12`, the GI50 in the assay with 786-0 renal was 9.26 µM; in the assay on COLO 205 colon it was greater than 100 µM; in the assay with HCT-116 colon it was 5.91 µM; with HL-60(TB) leukemia, greater than 100 µM; in the assay with HOP-62 NSCLC, 3.76 µM; in the assay on IGROV1 ovarian, 17.6 µM. Also, the GI50 in the assay on M14 melanoma is greater than 100 µM; in the assay with OVCAR-5 ovarian, greater than 100 µM; in the assay with SNB-75 CNS it was 3.74 µM. For the same compound, the TGI in the assay with 786-0 renal was 42.1 µM; in the assay on COLO 205 colon it was greater than 100 µM; with HCT-116 colon, greater than 100 µM; in the assay on HL-60(TB) leukemia, greater than 100 µM; in the assay with HOP-62 NSCLC, 21.7 µM; in the assay on IGROV1 ovarian, greater than 100 µM. Further, the TGI in the assay on M14 melanoma is greater than 100 µM; in the assay with OVCAR-5 ovarian, greater than 100 µM; with SNB-75 CNS it was 28 µM.
`COc1ccc2c(CCNS(=O)(=O)c3ccccc3)c(C(C)=O)[nH]c2c1[N+](=O)[O-]`: the TGI with 786-0 renal, with COLO 205 colon, with HCT-116 colon, in the assay on HL-60(TB) leukemia, in the assay with HOP-62 NSCLC and with IGROV1 ovarian was greater than 100 µM in each case. The TGI in the assay on M14 melanoma, in the assay on OVCAR-5 ovarian and in the assay with SR leukemia was greater than 100 µM each time.
Regarding `CC[O+]=c1cccc2ssnc1-2`, the TGI in the assay with 786-0 renal, with COLO 205 colon, in the assay with HCT-116 colon, in the assay with HL-60(TB) leukemia, in the assay on HOP-62 NSCLC and in the assay on IGROV1 ovarian was greater than 100 µM in each case. In addition, the values for the TGI in the assay on M14 melanoma, in the assay on OVCAR-5 ovarian and in the assay with SNB-75 CNS were greater than 100 µM, greater than 100 µM and 72.5 µM, respectively.
